Test results reported in patent US9850283B2, “Macrocyclic inhibitors of the PD-1/PD-L1 and CD80(B7-1)/PD-L1 protein/protein interactions” (BRISTOL-MYERS SQUIBB COMPANY, priority 2013, dated 2017).
Positions of bridges follow the written chain, without caps; N, C: chain ends. Non-standard residues stand in square brackets, D forms with d. Residues, ends and D or L forms follow the SMILES beside them. Phe(3,4,5-F3) = N[C@@H](Cc1cc(F)c(F)c(F)c1)C(=O)O; Phe(4-CH2NH2) = NCc1ccc(C[C@H](N)C(=O)O)cc1; Pro(4R-NH2) = N[C@H]1CN[C@H](C(=O)O)C1; d(cisHyp) = O=C(O)[C@H]1C[C@@H](O)CN1; NMeF = CN[C@@H](Cc1ccccc1)C(=O)O; dNMeE = CN[C@H](CCC(=O)O)C(=O)O; NMeNle = CCCC[C@H](NC)C(=O)O; dPip = O=C(O)[C@H]1CCCCN1; dAze = O=C(O)[C@H]1CCN1; Dap = NC[C@H](N)C(=O)O

Assays:
[1] = target: T1, LK35.2-hPD-L1 cells / PE-labeled PD-1-Ig (Homo sapiens, UniProt Q9NZQ7); assay: LK35.2-hPD-L1 cell binding high-content screening assay; format: cell-based; settings: cluster symbol; cell line of CBA not given (LK35.2-hPD-L1 or 293T-hPD-L1); read-out: CBA IC50 cluster
T1 construct: expressed in transfected cells; host or cells: LK35.2 mouse B cell line
In short: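 Readout: high-content imaging of PE-PD-1-Ig bound to LK35.2-hPD-L1 cells. Cells plated overnight (RPMI/10% FCS); compound + 1 nM PE-PD-1-Ig, 1 h, 37 °C; 3× dPBS wash before imaging.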

Human PD-L1/PD-1 = target: T2, Human PD-L1/PD-1 (Homo sapiens, UniProt Q9NZQ7); assay: HTRF PD-1-Ig/PD-L1-His binding assay (human PD-L1); settings: cluster symbol; read-out: HTRF IC50 cluster
T2 construct: made in house; host or cells: HEK293T
In short: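 Soluble PD-1-Ig binding to PD-L1-His measured by HTRF in dPBS with 0.1% BSA and 0.05% Tween-20. Detection used europium cryptate anti-Ig antibody (1 nM final) and APC anti-His antibody (20 nM final) added on top of the binding reaction.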

T2 sequence (Q9NZQ7 with tags, fused parts or gaps): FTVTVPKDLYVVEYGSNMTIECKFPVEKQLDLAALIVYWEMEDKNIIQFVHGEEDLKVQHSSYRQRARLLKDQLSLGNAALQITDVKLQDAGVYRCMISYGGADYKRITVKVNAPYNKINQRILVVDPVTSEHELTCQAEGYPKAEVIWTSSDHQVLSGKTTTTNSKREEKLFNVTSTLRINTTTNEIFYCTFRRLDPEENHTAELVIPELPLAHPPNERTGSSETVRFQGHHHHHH
T1 sequence (Q9NZQ7 19-290): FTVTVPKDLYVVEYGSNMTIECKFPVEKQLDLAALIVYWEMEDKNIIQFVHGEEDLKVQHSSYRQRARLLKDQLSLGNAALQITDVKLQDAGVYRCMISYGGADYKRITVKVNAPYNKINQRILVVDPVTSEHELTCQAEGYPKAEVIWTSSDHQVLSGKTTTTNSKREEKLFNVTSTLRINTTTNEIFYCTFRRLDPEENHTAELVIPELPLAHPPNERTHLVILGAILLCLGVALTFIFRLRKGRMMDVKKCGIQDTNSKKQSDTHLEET

| Compound | IC50 [1] [nM] | IC50 (Human PD-L1/PD-1) [nM] |
| --- | --- | --- |
| CCCC[C@H]1C(=O)N2CCC[C@@H]2C(=O)N[C@@H](CC(=O)O)C(=O)N[C@@H](C(C)C)C(=O)N(C)[C@@H](Cc2ccccc2)C(=O)N[C@@H](CCCN)C(=O)N2CCC[C@@H]2C(=O)N[C@@H](Cc2c[nH]c3ccccc23)C(=O)N[C@@H](Cc2ccc(O)cc2)C(=O)N[C@@H](CC(C)C)C(=O)N[C@H](C(=O)NCC(N)=O)CSCC(=O)N[C@@H](Cc2ccccc2)C(=O)N(C)[C@@H](Cc2ccccc2)C(=O)N1C [Example 3188] (HELM PEPTIDE1{[O=C(C[*:3])[*:2]].F.[meF].[CCCC[C@@H](C(=O)[*:2])N(C)[*:1]].[dP].D.V.[meF].[Orn].[dP].W.Y.L.C.G.[am]}$PEPTIDE1,PEPTIDE1,1:R3-14:R3$$$V2.0) | 0.158 to 4.71 | 6.76 to 30.3 |
| CCCC[C@H]1C(=O)N2CCC[C@@H]2C(=O)N[C@@H](CCCCN)C(=O)N[C@@H](C(C)C)C(=O)N(C)[C@@H](Cc2ccccc2)C(=O)N[C@@H](CCC(=O)O)C(=O)N2CCC[C@@H]2C(=O)N[C@@H](Cc2c[nH]c3ccccc23)C(=O)N[C@@H](Cc2ccc(O)cc2)C(=O)N[C@@H](CC(C)C)C(=O)N[C@H](C(=O)NCC(N)=O)CSCC(=O)N[C@@H](Cc2ccccc2)C(=O)N(C)[C@@H](Cc2ccccc2)C(=O)N1C [Example 3190] (HELM PEPTIDE1{[O=C(C[*:3])[*:2]].F.[meF].[CCCC[C@@H](C(=O)[*:2])N(C)[*:1]].[dP].K.V.[meF].E.[dP].W.Y.L.C.G.[am]}$PEPTIDE1,PEPTIDE1,1:R3-14:R3$$$V2.0) | 0.158 to 4.71 | 0.385 to 6.74 |
| CCCC[C@H]1C(=O)N2CCC[C@@H]2C(=O)N2C[C@H](N)C[C@H]2C(=O)N[C@@H](C(C)C)C(=O)N(C)[C@@H](Cc2ccccc2)C(=O)N[C@@H](Cc2ccc(O)cc2)C(=O)N2CC[C@@H]2C(=O)N[C@@H](Cc2c[nH]c3ccccc23)C(=O)N[C@@H](Cc2ccc(O)cc2)C(=O)N[C@@H](CC(C)C)C(=O)N[C@H](C(=O)NCC(N)=O)CSCC(=O)N[C@@H](Cc2cc(F)c(F)c(F)c2)C(=O)N(C)[C@@H](Cc2ccccc2)C(=O)N1C [Example 3192] ({CH2CO}-[Phe(3,4,5-F3)][NMeF][NMeNle][dP][Pro(4R-NH2)]V[NMeF]Y[dAze]WYLCG-NH2; thioether N-13) | 0.158 to 4.71 | 0.385 to 6.74 |
| CCCC[C@H]1C(=O)N2C[C@H](O)C[C@@H]2C(=O)N2C[C@H](N)C[C@H]2C(=O)N[C@@H](C(C)C)C(=O)N(C)[C@@H](Cc2ccccc2)C(=O)N[C@@H](Cc2ccc(O)cc2)C(=O)N2CC[C@@H]2C(=O)N[C@@H](Cc2c[nH]c3ccccc23)C(=O)N[C@@H](Cc2ccc(O)cc2)C(=O)N[C@@H](CC(C)C)C(=O)N[C@H](C(=O)NCC(N)=O)CSCC(=O)N[C@@H](Cc2cc(F)c(F)c(F)c2)C(=O)N(C)[C@@H](Cc2ccccc2)C(=O)N1C [Example 3195] ({CH2CO}-[Phe(3,4,5-F3)][NMeF][NMeNle][d(cisHyp)][Pro(4R-NH2)]V[NMeF]Y[dAze]WYLCG-NH2; thioether N-13) | 0.158 to 4.71 | 0.385 to 6.74 |
| CCCC[C@H]1C(=O)N2CCC[C@@H]2C(=O)N[C@@H](CO)C(=O)N[C@@H](C(C)C)C(=O)N(C)[C@@H](Cc2ccccc2)C(=O)N[C@@H](Cc2ccc(CN)cc2)C(=O)N2CCC[C@@H]2C(=O)N[C@@H](Cc2c[nH]c3ccccc23)C(=O)N[C@@H](Cc2ccc(O)cc2)C(=O)N[C@@H](CCCCN)C(=O)N[C@H](C(=O)NCC(N)=O)CSCC(=O)N[C@@H](Cc2cc(F)c(F)c(F)c2)C(=O)N(C)[C@@H](Cc2ccccc2)C(=O)N1C [Example 3199] ({CH2CO}-[Phe(3,4,5-F3)][NMeF][NMeNle][dP]SV[NMeF][Phe(4-CH2NH2)][dP]WYKCG-NH2; thioether N-13) | 0.158 to 4.71 | 6.76 to 30.3 |

Second part, the compound after the results:

| IC50 [1] [nM] | IC50 (Human PD-L1/PD-1) [nM] | Compound |
| --- | --- | --- |
| 4.78 to 72.9 | 0.385 to 6.74 | CCCC[C@H]1C(=O)N2CCC[C@@H]2C(=O)N[C@@H](CCC(=O)O)C(=O)N[C@@H](C(C)C)C(=O)N(C)[C@@H](Cc2ccccc2)C(=O)N[C@@H](CN)C(=O)N2CCC[C@@H]2C(=O)N[C@@H](Cc2c[nH]c3ccccc23)C(=O)N[C@@H](Cc2ccc(O)cc2)C(=O)N[C@@H](CC(C)C)C(=O)N[C@H](C(=O)NCC(N)=O)CSCC(=O)N[C@@H](Cc2ccccc2)C(=O)N(C)[C@@H](Cc2ccccc2)C(=O)N1C [Example 3191] ({CH2CO}-F[NMeF][NMeNle][dP]EV[NMeF][Dap][dP]WYLCG-NH2; thioether N-13) |
| 0.158 to 4.71 | 0.385 to 6.74 | CCCC[C@H]1C(=O)N2CCC[C@@H]2C(=O)N2C[C@H](N)C[C@H]2C(=O)N[C@@H](C(C)C)C(=O)N(C)[C@@H](Cc2ccccc2)C(=O)N[C@@H](Cc2ccc(O)cc2)C(=O)N2CCC[C@@H]2C(=O)N[C@@H](Cc2c[nH]c3ccccc23)C(=O)N[C@@H](Cc2ccc(O)cc2)C(=O)N[C@@H](CC(C)C)C(=O)N[C@H](C(=O)NCC(N)=O)CSCC(=O)N[C@@H](Cc2cc(F)c(F)c(F)c2)C(=O)N(C)[C@@H](Cc2ccccc2)C(=O)N1C [Example 3193] ({CH2CO}-[Phe(3,4,5-F3)][NMeF][NMeNle][dP][Pro(4R-NH2)]V[NMeF]Y[dP]WYLCG-NH2; thioether N-13) |
| 0.158 to 4.71 | 0.385 to 6.74 | CCCC[C@H]1C(=O)N2C[C@H](O)C[C@@H]2C(=O)N2C[C@H](N)C[C@H]2C(=O)N[C@@H](C(C)C)C(=O)N(C)[C@@H](Cc2ccccc2)C(=O)N[C@@H](Cc2ccc(O)cc2)C(=O)N2CCCC[C@@H]2C(=O)N[C@@H](Cc2c[nH]c3ccccc23)C(=O)N[C@@H](Cc2ccc(O)cc2)C(=O)N[C@@H](CC(C)C)C(=O)N[C@H](C(=O)NCC(N)=O)CSCC(=O)N[C@@H](Cc2cc(F)c(F)c(F)c2)C(=O)N(C)[C@@H](Cc2ccccc2)C(=O)N1C [Example 3196] ({CH2CO}-[Phe(3,4,5-F3)][NMeF][NMeNle][d(cisHyp)][Pro(4R-NH2)]V[NMeF]Y[dPip]WYLCG-NH2; thioether N-13) |
| 0.158 to 4.71 | 0.385 to 6.74 | CCCC[C@H]1C(=O)N2C[C@H](O)C[C@@H]2C(=O)N2C[C@H](N)C[C@H]2C(=O)N[C@@H](C(C)C)C(=O)N(C)[C@@H](Cc2ccccc2)C(=O)N[C@@H](Cc2ccc(O)cc2)C(=O)N(C)[C@H](CCC(=O)O)C(=O)N[C@@H](Cc2c[nH]c3ccccc23)C(=O)N[C@@H](Cc2ccc(O)cc2)C(=O)N[C@@H](CC(C)C)C(=O)N[C@H](C(=O)NCC(N)=O)CSCC(=O)N[C@@H](Cc2cc(F)c(F)c(F)c2)C(=O)N(C)[C@@H](Cc2ccccc2)C(=O)N1C [Example 3197] ({CH2CO}-[Phe(3,4,5-F3)][NMeF][NMeNle][d(cisHyp)][Pro(4R-NH2)]V[NMeF]Y[dNMeE]WYLCG-NH2; thioether N-13) |
| 0.158 to 4.71 | 6.76 to 30.3 | CCCC[C@H]1C(=O)N2CCC[C@@H]2C(=O)N[C@@H](CC(N)=O)C(=O)N[C@@H](C(C)C)C(=O)N(C)[C@@H](Cc2ccccc2)C(=O)N[C@@H](Cc2ccc(CN)cc2)C(=O)N2CCC[C@@H]2C(=O)N[C@@H](Cc2c[nH]c3ccccc23)C(=O)N[C@@H](Cc2ccc(O)cc2)C(=O)N[C@@H](CCCCN)C(=O)N[C@H](C(=O)NCC(N)=O)CSCC(=O)N[C@@H](Cc2cc(F)c(F)c(F)c2)C(=O)N(C)[C@@H](Cc2ccccc2)C(=O)N1C [Example 3198] ({CH2CO}-[Phe(3,4,5-F3)][NMeF][NMeNle][dP]NV[NMeF][Phe(4-CH2NH2)][dP]WYKCG-NH2; thioether N-13) |
